Results on 30 molecules are retold here after PMC7967119, “Design and Synthesis of Non-Covalent Imidazo[1,2-a]quinoxaline-Based Inhibitors of EGFR and Their Anti-Cancer Assessment” (Molecules, 2021).

For data set [1], the system named is MDA-MB-231 cells. The data set can be described thus: H2DCFDA assay of ROS in MDA-MB-231. In kind it is cell-based, human. The conditions noted are these: sub-IC50 concentration, 48 h.
The subject of data set [2] is MDA-MB-231 (breast cancer) cells. The data set can be described thus: MTT antiproliferative assay, MDA-MB-231. The conditions noted are these: Homo sapiens, MDA-MB-231, 48 h, read-out: IC50 (μM) ± SEM, MDA-MB-231 (Breast Cancer).
For data set [3], the system named is MCF-7 (breast) cells. The data set can be described thus: H2DCFDA assay of ROS in MCF-7. The data set is classed as cell-based. The conditions noted are these: sub-IC50 concentration, 48 h.
For data set [4], the system named is HCT-116 WT (colon cancer) cells. The data set can be described thus: MTT antiproliferative assay, HCT-116 WT. Conditions: Homo sapiens, HCT-116, 48 h, read-out: IC50 (μM) ± SEM, HCT-116 WT (Colon Cancer).
The test system of data set [5] is A549 cells. Kind of data set: Flow cytometric PI cell cycle analysis in A549. The data set is classed as cell-based, human. The conditions noted are these: A549, sub-IC50 concentration, 48 h. The procedure: The assays were performed following our previous published reports. Briefly, A549 cells were cultured in 100 mm dishes and maintained to attain at least 80% confluency. […] After the stipulated period, the remaining media were collected along with the cells (trypsinization) and were centrifuged (1200 rpm for 5 min) and washed two times using 1X PBS. Furthermore, the cells were raised to the concentration of 400 µL and were equally divided (5 × 10^4) in four aliquots. The first three aliquots were added with H2DCFDA (10 µM/100 µL), JC-1 dye (1 mM/mL) and Annexin V and PI (as per manufacturer protocol (Thermo Fisher: V13242, Maharashtra, India) to analyze detection of alteration in ROS, ∆ψm and mode of cell death, respectively. The cancer cells were incubated in the dark for 30 min at rt before analysis. Next, the fourth aliquot cells were fixed using chilled ethanol (70%) and incubated at −20 °C for 4 h to allow fixing. After 4 h, cells were centrifuged (2200 rpm for 10 min) and washed twice with 1X PBS. Furthermore, the cells were treated with RNase and PI was added and they were further incubated for 30 min in the dark before analysis. All the samples were analyzed using BD C6 flow cytometer using various FL channels.
Background: Flow cytometry measures light scatter and fluorescence of single cells or particles in a stream.

Data set [6] has as its target EGFR^WT (Homo sapiens, UniProt P00533). Kind of data set: EGFR inhibitory assay (Z-lyte kinase assay kit, Tyr 4 peptide, FRET-based). The data set is classed as biochemical. Here is the method:
The test compounds were analyzed for EGFR inhibitory potential using z-lyte kinase assay kit–tyr 4 peptide assay kit (catalogue no. PV3193; Thermofisher, Mumbai, Maharashtra, India). The assay biochemically is FRET-based, which involves coupled enzyme format that relies on differential sensitivity of proteolytic cleavage of phosphorylated and non-phosphorylated peptides. The reaction proceeds in two steps, first involving the kinase reaction that is concerned with the transfer of phosphate group from ATP to single tyrosine residue, followed by development reaction, which involves site-protease role and cleaves non-phosphorylated peptide, allowing the disruption of FRET between donor and acceptor end of phosphorylated peptide, which facilitates deducing the emission ratio. The assay was performed per manufacturer protocol and per our published reports. […] Next, the assay master mix was prepared under ice-cold conditions by thawing and mixing kinase buffer (133 µL), kinase peptides (0.5 µL), phosphopeptide (0.5 µL) along with ATP (0.5 µL) solution. The master mix was added to testing compounds and further incubated for 1 h at room temperature and allowed the kinase reaction followed by development reaction to occur. After the stipulated period, reaction was stopped by addition of 5 µL stop solution to each reaction mixture.
The extent of phosphorylation was calculated by the following formula (Equation (1)):(1) % phosphorylation =1− (Emission ratio× F100%)− C100%/(C0%−C100%) + [Emission ratio (F100%−F0%)] where C0% = Average coumarin emission signal of the […]; F100% = Average Fluorescein emission signal of the 100% Phos. Control; F0% = Average Fluorescein emission signal of the 0% Phos. Control.

Data set [7] relates to A549 (lung cancer) cells harboring EGFR^WT. Kind of data set: MTT antiproliferative assay, A549. Conditions: Homo sapiens, A549, 48 h, read-out: IC50 (μM) ± SEM, A549 (Lung Cancer). Background: Tetrazolium dyes change colour on reduction, which living cells bring about.
Setting [8] is: EGFR wild type, tested at 100, 250, 500 and 720 nM, triplicate, read-out: EGFR Inhibition IC50 (nM) ± SEM.

SMILES strings stand for the structures. Read-outs that look alike come from different tables or passages of the source.

Chain of EGFR^WT (P00533 25-1210): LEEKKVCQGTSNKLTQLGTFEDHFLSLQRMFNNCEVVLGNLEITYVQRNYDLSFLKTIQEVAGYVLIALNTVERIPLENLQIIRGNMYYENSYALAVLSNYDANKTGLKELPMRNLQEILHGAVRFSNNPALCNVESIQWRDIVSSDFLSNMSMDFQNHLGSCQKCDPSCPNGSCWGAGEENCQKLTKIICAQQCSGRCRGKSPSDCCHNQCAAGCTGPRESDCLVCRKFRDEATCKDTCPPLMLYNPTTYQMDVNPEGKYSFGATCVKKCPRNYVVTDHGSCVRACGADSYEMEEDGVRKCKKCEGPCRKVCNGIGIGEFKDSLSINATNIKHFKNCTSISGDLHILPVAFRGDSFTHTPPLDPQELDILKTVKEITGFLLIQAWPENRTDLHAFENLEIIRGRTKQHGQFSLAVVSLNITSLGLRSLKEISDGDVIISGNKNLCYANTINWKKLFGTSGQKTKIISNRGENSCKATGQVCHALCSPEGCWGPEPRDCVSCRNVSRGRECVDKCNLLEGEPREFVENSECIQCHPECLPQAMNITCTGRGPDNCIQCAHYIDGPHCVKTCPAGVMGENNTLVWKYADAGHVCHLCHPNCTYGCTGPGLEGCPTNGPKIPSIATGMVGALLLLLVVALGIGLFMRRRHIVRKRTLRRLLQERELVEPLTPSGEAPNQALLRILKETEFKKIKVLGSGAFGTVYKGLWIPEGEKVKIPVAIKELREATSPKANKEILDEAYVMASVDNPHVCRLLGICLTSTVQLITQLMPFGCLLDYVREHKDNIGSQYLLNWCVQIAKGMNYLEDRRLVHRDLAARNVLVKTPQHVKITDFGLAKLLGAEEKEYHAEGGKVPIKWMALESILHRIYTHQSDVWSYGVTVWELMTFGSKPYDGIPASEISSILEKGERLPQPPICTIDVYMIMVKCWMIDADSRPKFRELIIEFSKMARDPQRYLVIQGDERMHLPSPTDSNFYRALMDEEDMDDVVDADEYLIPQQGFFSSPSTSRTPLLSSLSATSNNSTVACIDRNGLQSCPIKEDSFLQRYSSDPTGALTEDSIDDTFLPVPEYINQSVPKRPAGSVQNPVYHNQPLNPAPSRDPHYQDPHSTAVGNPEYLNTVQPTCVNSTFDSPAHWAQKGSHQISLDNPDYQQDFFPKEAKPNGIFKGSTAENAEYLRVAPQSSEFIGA

What is called IC50 is the midpoint of a concentration-inhibition curve. `COc1cc(/C=N/c2c(C#N)nc3c(-c4cc(OC)c(OC)c(OC)c4)nc4ccccc4n23)cc(OC)c1OC` [Compound 6b, (E)-1-((3,4,5-Trimethoxybenzylidene)amino)-4-(3,4,5-trimethoxyphenyl)imidazo[1,2-a]quinoxaline-2-carbonitrile]: in data set [1], the “Percentage decrease in ROS, MDA-MB-231” value is “marginal”. Also, the concentration for half-maximal inhibition (IC50) turned out to be 4.1 ± 0.031 µM in data set [2], 5.1 ± 0.029 µM in data set [4] and 211.22 ± 0.027 nM in data set [6] (setting [8]). Further, the “Percentage decrease in ROS, MCF-7” value in data set [3] is listed as “marginal”. In data set [5], the “Cell cycle analysis G1 (%)” value is given as 34.51%.
With `N#Cc1nc2n(c1/N=C/c1ccco1)-c1ccccc1NC2c1ccco1` (stereo not shown) [Compound 7f], the 50% inhibitory concentration (IC50) in data set [6] (setting [8]) came to 232.4 ± 0.031 nM.
For the molecule `N#Cc1nc2n(c1/N=C/c1ccc(O)c(O)c1)-c1ccccc1NC2c1ccc(O)c(O)c1` (stereo not shown) [Compound 7c], the IC50 in data set [6] (setting [8]) is 620.17 ± 0.019 nM.
`C/C(=N\c1c(C#N)nc2n1-c1ccccc1NC2(C)c1cccs1)c1cccs1` (stereo not shown) [Compound 9b]: the 50% inhibitory concentration (IC50) in data set [6] (setting [8]) stood at 244.51 ± 0.021 nM.
Still for that read-out and setting: with `N#Cc1nc2n(c1N)-c1ccccc1NC2c1cccc([N+](=O)[O-])c1` (stereo not shown) [Compound 8b] the figure was greater than 720 nM.
For `N#Cc1nc2c(-c3ccc(Cl)cc3)nc3ccccc3n2c1/N=C/c1ccc(Cl)cc1` [Compound 6d], the “EGFR^WT inhibitory activity in words” value in data set [6] (EGFR wild type) was “poorly active or possessed no activity at all”. Further, the concentration for half-maximal inhibition (IC50) in data set [6] (setting [8]) was greater than 720 nM.
Turning to `CC1(c2cccc([N+](=O)[O-])c2)Nc2ccccc2-n2c1nc(C#N)c2N` (stereo not shown) [Compound 10a], the IC50 in data set [6] (setting [8]) came to 247.32 ± 0.021 nM.
`COc1ccc(/C(C)=N/c2c(C#N)nc3n2-c2ccccc2NC3(C)c2ccc(OC)c(OC)c2)cc1OC` (stereo not shown) [Compound 9c]: the concentration for half-maximal inhibition (IC50) came to 12.06 ± 0.021 µM in data set [7], 13.6 ± 0.028 µM in data set [2], 7.9 ± 0.027 µM in data set [4] and 221.53 ± 0.028 nM in data set [6] (setting [8]).
On to `C#Cc1cccc(Nc2ncnc3cc(OCCOC)c(OCCOC)cc23)c1` [Erlotinib, erlotinib, reference compound], for which the 50% inhibitory concentration (IC50) worked out at 3.33 ± 0.018 µM in data set [2] and 2.98 ± 0.023 µM in data set [4].
The term melting point denotes the temperature, or range, at which the solid turns liquid. Consider `N#Cc1nc2n(c1N)-c1ccccc1NC2c1ccccc1[N+](=O)[O-]` (stereo not shown) [Compound 8c, 1-Amino-4-(2-nitrophenyl)-4,5-dihydroimidazo[1,2-a]quinoxaline-2-carbonitrile], for which the melting point lay within 165 to 167 °C. In addition, the IC50 in data set [6] (setting [8]) was greater than 720 nM.
For the molecule `COc1cc(/C=N/c2c(C#N)nc3n2-c2ccccc2NC3c2cc(OC)c(OC)c(OC)c2)cc(OC)c1OC` (stereo not shown) [Compound 7i], the “EGFR^WT inhibitory activity in words” value in data set [6] (EGFR wild type) is given as “poorly active or possessed no activity at all”. For the same molecule, in data set [6] (setting [8]), the 50% inhibitory concentration (IC50) amounted to 613.37 ± 0.024 nM.
On to `CC1(C)Nc2ccccc2-n2c1nc(C#N)c2N` [Compound 10d], for which the IC50 in data set [6] (setting [8]) is 624.57 ± 0.024 nM.
Turning to `N#Cc1ccc(C2Nc3ccccc3-n3c2nc(C#N)c3N)cc1` (stereo not shown) [Compound 8a], the half-inhibitory concentration (IC50) in data set [6] (setting [8]) is greater than 720 nM.
With `N#Cc1nc2n(c1N)-c1ccccc1N1C(=O)CCC21` (stereo not shown) [Compound 11], the “EGFR^WT inhibitory activity in words” value in data set [6] (EGFR wild type) is recorded as “poorly active or possessed no activity at all”. The IC50 in data set [6] (setting [8]) was 669.39 ± 0.019 nM.
Regarding `N#Cc1nc2n(c1/N=C/c1ccc([N+](=O)[O-])cc1)-c1ccccc1NC2c1ccc([N+](=O)[O-])cc1` (stereo not shown) [Compound 7j], the IC50 in data set [7] was 8.75 ± 0.028 µM; in data set [2] it was 2.2 ± 0.026 µM; in data set [4], less than 1 µM; in data set [6], 193.18 ± 0.021 nM.
On to `N#Cc1nc2n(c1N)-c1ccccc1NC2(C(=O)c1ccccc1)c1ccccc1` (stereo not shown) [Compound 10c], for which, in data set [6] (setting [8]), the half-inhibitory concentration (IC50) worked out at 716.32 ± 0.026 nM.
Consider `COc1ccc(OC)c(/C=N/c2c(C#N)nc3c(-c4cc(OC)ccc4OC)nc4ccccc4n23)c1` [Compound 6a], for which the IC50 in data set [6] (setting [8]) came out at 429.81 ± 0.018 nM.
In turn, `CC(C)c1ccc(-c2nc3ccccc3n3c(N)c(C#N)nc23)cc1` [Compound 5d, 1-Amino-4-(4-isopropylphenyl)imidazo[1,2-a]quinoxaline-2-carbonitrile] registered a melting point of 166 to 168 °C. The “EGFR^WT inhibitory activity in words” value in data set [6] (EGFR wild type) is reported as “poorly active or possessed no activity at all”. For the same molecule, the concentration for half-maximal inhibition (IC50) in data set [6] (setting [8]) was greater than 720 nM.
For the molecule `C/C(=N\c1c(C#N)nc2n1-c1ccccc1NC2(C)c1ccc(Cl)cc1)c1ccc(Cl)cc1` (stereo not shown) [Compound 9a], the half-maximal inhibitory concentration (IC50) in data set [7] is 6.63 ± 0.031 µM; in data set [2], 14.1 ± 0.021 µM; in data set [4], greater than 25 µM; in data set [6] (setting [8]) it was 223.32 ± 0.031 nM.
With `N#Cc1nc2n(c1/N=C/c1ccc([N+](=O)[O-])cc1[N+](=O)[O-])-c1ccccc1NC2c1ccc([N+](=O)[O-])cc1[N+](=O)[O-]` (stereo not shown) [Compound 7g], the concentration for half-maximal inhibition (IC50) in data set [6] (setting [8]) was 476.87 ± 0.022 nM.
In the case of `COc1cc(-c2nc3ccccc3n3c(N)c(C#N)nc23)cc(OC)c1OC` [Compound 5a], the “EGFR^WT inhibitory activity in words” value in data set [6] (EGFR wild type) is on record as “poorly active or possessed no activity at all”. In addition, the IC50 in data set [6] (setting [8]) was greater than 720 nM.
In turn, `CN(C)c1ccc(-c2nc3ccccc3n3c(N)c(C#N)nc23)cc1` [Compound 5c, 1-Amino-4-(4-(dimethylamino)phenyl)imidazo[1,2-a]quinoxaline-2-carbonitrile] gave a melting point of 169 to 171 °C. Also, the “EGFR^WT inhibitory activity in words” value in data set [6] (EGFR wild type) is reported as “poorly active or possessed no activity at all”. The IC50 in data set [6] (setting [8]) is greater than 720 nM.
For `N#Cc1nc2n(c1/N=C/c1ccccc1F)-c1ccccc1NC2c1ccccc1F` (stereo not shown) [Compound 7h], the IC50 in data set [7] is 4.09 ± 0.024 µM; in data set [2], 11.2 ± 0.022 µM; in data set [4] it was less than 1 µM; in data set [6] (setting [8]), 222.21 ± 0.028 nM.
With `N#Cc1nc2c(-c3cccc([N+](=O)[O-])c3)nc3ccccc3n2c1N` [Compound 5b], in data set [6] (setting [8]), the concentration for half-maximal inhibition (IC50) was 244.45 ± 0.032 nM.
On to `N#Cc1ccc(/C=N/c2c(C#N)nc3n2-c2ccccc2NC3c2ccc(C#N)cc2)cc1` (stereo not shown) [Compound 7k, (E)-1-((4-Cyanobenzylidene)amino)-4-(4-cyanophenyl)-4,5-dihydroimidazo[1,2-a]quinoxaline-2-carbonitrile], for which the melting point lay in the range of 173 to 175 °C. Also, the “EGFR^WT inhibitory activity in words” value in data set [6] (EGFR wild type) is recorded as “poorly active or possessed no activity at all”. For the same molecule, in data set [6] (setting [8]), the 50% inhibitory concentration (IC50) is greater than 720 nM.
Regarding `N#Cc1nc2n(c1/N=C/c1ccccc1Br)-c1ccccc1NC2c1ccccc1Br` (stereo not shown) [Compound 7e], in data set [6] (setting [8]), the IC50 turned out to be 665.89 ± 0.029 nM.
Regarding `COc1ccc(/C=N/c2c(C#N)nc3c(-c4ccc(OC)c(OC)c4)nc4ccccc4n23)cc1OC` [Compound 6c, (E)-1-((3,4-Dimethoxybenzylidene)amino)-4-(3,4-dimethoxy-phenyl)imidazo[1,2-a]quinoxaline-2-carbonitrile], the melting point lay within 170 to 172 °C. Besides, the “EGFR^WT inhibitory activity in words” value in data set [6] (EGFR wild type) was “poorly active or possessed no activity at all”. Besides, the 50% inhibitory concentration (IC50) in data set [6] (setting [8]) is greater than 720 nM.
As to `COc1ccc(OC)c(/C=N/c2c(C#N)nc3n2-c2ccccc2NC3c2cc(OC)ccc2OC)c1` (stereo not shown) [Compound 7d], in data set [6] (setting [8]), the 50% inhibitory concentration (IC50) came out at 652.56 ± 0.024 nM.
Still for that read-out and setting: next, `COc1ccc(/C=N/c2c(C#N)nc3n2-c2ccccc2NC3c2ccc(OC)c(OC)c2)cc1OC` (stereo not shown) [Compound 7a]: greater than 720 nM; `N#Cc1nc2n(c1/N=C/c1ccccc1[N+](=O)[O-])-c1ccccc1NC2c1ccccc1[N+](=O)[O-]` (stereo not shown) [Compound 7b]: greater than 720 nM.
